From patent US20220089631A1, “COMPOUND COMPRISING MULTIVALENT SIALYLOLIGO[…], AND COMPOSITION FOR PREVENTING OR TREATING VIRAL INFECTION DISEASES, CONTAINING SAME AS ACTIVE INGREDIENT” (priority 2018, published 2022)

What was measured:
Type in all cases: cell-based, influenza virus
[1] = test system: Influenza Type A H1N1 (PR8)
[2] = test system: Influenza Type A H3N2 (swine)
[3] = test system: Influenza Type B
[4] = test system: Influenza Type A H9N2 (avian)

CC(=O)NC1C(O)CC(OCC2CC(O)C(O)C(OC3C(CO)OC(OCCCCCCNC(=O)CCC(=O)OC4OC(COC(=O)CCC(=O)NCCCCCCOC5OC(O)C(OC6OC(COC7(C(=O)O)CC(O)C(NC(C)=O)C([C@@H](O)[C@H](O)CO)O7)CC(O)C6O)C(O)C5O)C(OC(=O)CCC(=O)NCCCCCCOC5OC(CO)C(OC6OC(COC7(C(=O)O)CC(O)C(NC(C)=O)C(C(O)[C@H](O)CO)O7)CC(O)C6O)C(O)C5O)C4OC(=O)CCC(=O)NCCCCCCOC4OC(CO)C(OC5OC(COC6(C(=O)O)CC(O)C(NC(C)=O)C([C@@H](O)[C@H](O)CO)O6)C(O)C(O)C5O)C(O)C4O)C(O)C3O)O2)(C(=O)O)OC1C(O)[C@H](O)CO (stereo partly drawn) [Compound 4]
Hemagglutination inhibition concentration [1]: 0.45 mM
Hemagglutination inhibition concentration [2]: 0.85 mM
Hemagglutination inhibition concentration [3]: 0.15 mM
Hemagglutination inhibition concentration [4]: 2.0 mM

CC(=O)N[C@H]1[C@H]([C@H](O)[C@H](O)CO)O[C@@](O[C@H]2[C@@H](O)[C@@H](CO)O[C@@H](O[C@H]3[C@H](O)[C@@H](O)C(O)O[C@@H]3CO)[C@@H]2O)(C(=O)O)C[C@@H]1O (stereo partly drawn) [compound 1, 3′-sialyl lactose]
Hemagglutination inhibition concentration [1]: 25 mM
Hemagglutination inhibition concentration [2]: 20 mM
Hemagglutination inhibition concentration [3]: 10 mM
Hemagglutination inhibition concentration [4]: 18 mM

CC(=O)N[C@H]1[C@H]([C@H](O)[C@H](O)CO)O[C@@](OC[C@H]2O[C@@H](O[C@H]3[C@H](O)[C@@H](O)[C@H](O)O[C@@H]3CO)[C@H](O)[C@@H](O)[C@H]2O)(C(=O)O)C[C@@H]1O [compound 2, 6′-sialyl lactose]
Hemagglutination inhibition concentration [1]: 12.5 mM
Hemagglutination inhibition concentration [2]: 4.5 mM
Hemagglutination inhibition concentration [3]: 4.5 mM
Hemagglutination inhibition concentration [4]: >100 mM
